{"source": "patent US4307112A", "about": "“9-Deoxy-9A-methylene isosteres of PGI2 and process for their preparation” (Farmitalia Carlo Erba S.p.A., priority 1978, dated 1981)", "key": {"hamster": {"system": "hamster", "experiment": "in vitro luteolytic activity in the hamster compared with PGI2 at equally active antiaggregant doses"}, "platelet aggregation": {"system": "platelet aggregation", "experiment": "in vitro inhibitory effect on platelet aggregation induced by 10 μM ADP in platelet rich plasma", "format": "cell-based", "conditions": "for IC50: read-out: in vitro antiaggregant effect IC50 (50% platelet aggregation inhibiting concentration)", "text": "IC50 = 50% platelet aggregation inhibiting concentration."}, "anaesthetized rat": {"system": "anaesthetized rat", "experiment": "hypotensive effect on the anaesthetized rat", "format": "in vivo", "conditions": "PGI2 = 100"}, "[1]": {"conditions": "product of reaction of PGI2 with acid; cited from earlier work"}, "[2]": {"conditions": "acid; enol ether; listed as natural prostacyclin; cited from earlier work"}, "asthmatic patients": {"system": "asthmatic patients", "conditions": "inhaled; cited from earlier work"}, "man": {"system": "man", "conditions": "infused in man; cited from earlier work"}, "blood platelet": {"system": "blood platelet", "conditions": "infused in man; cited from earlier work"}, "uterus [3]": {"system": "uterus", "conditions": "monkey; cited from earlier work"}, "uterus [4]": {"system": "uterus", "conditions": "person; cited from earlier work"}, "test animals": {"system": "test animals", "conditions": "cited from earlier work"}, "gastric mucous membrane": {"system": "gastric mucous membrane", "conditions": "ulcers induced by e.g. acetyl salicylic acid and indomethacin; test animals, e.g. the rat; cited from earlier work"}, "[5]": {"experiment": "antiulcerogenic activity compared with PGI2 at equi-active antiaggregant doses", "format": "in vivo"}, "[6]": {"conditions": "10 μM ADP, platelet rich plasma"}}, "note": "“Also recorded” adds a separate entry of the source. Like-named read-outs stand apart in the source and are kept apart here."}
{"molecule": "5c,13t-11α,15S-dihydroxy-9a-deoxy-9a,7a-homo-dimethylene-16-phenoxy- 17,18,19,20-tetranor,prostacycla-5,13-dienoic acid", "values": [{"measurement": "in vitro luteolytic activity relative to PGI2", "setting": "hamster", "result": 8, "unit": "times greater"}]}
{"molecule": "5t,13t-11α,15S-dihydroxy-9a-deoxy-9a,7a-homo-dimethylene-prostacycla- 5,13-dienoic acid [(3)]", "values": [{"measurement": "in vitro antiaggregant effect IC50 (50% platelet aggregation inhibiting concentration)", "setting": "platelet aggregation; [6]", "result": "20 ηg/ml"}, {"measurement": "hypotensive effect potency ratio", "setting": "anaesthetized rat", "result": 0.25}]}
{"molecule": "CCCCC[C@H](O)/C=C/[C@@H]1[C@@H](CC(=O)CCCCC(=O)O)[C@@H](O)C[C@H]1O", "note": "[6-keto-PGF1α]", "values": [{"measurement": "biological activity characteristic of natural prostacyclin", "setting": "[1]", "result": "almost none of the biological activity"}]}
{"molecule": "CCCCC[C@H](O)/C=C/[C@@H]1[C@H]2C/C(=C/CCCC(=O)O)O[C@H]2C[C@H]1O", "note": "[(1), 6,9α-oxide-11α,15(S)-dihydroxy-prosta-5(Z),13(E)-dienoic acid]", "values": [{"measurement": "IC50", "setting": "platelet aggregation; [6]", "result": 0.001, "unit": "µg/mL"}, {"measurement": "hypotensive effect potency ratio", "setting": "anaesthetized rat", "result": 100}, {"measurement": "chemical stability of natural prostacyclin", "setting": "[2]", "result": "extremely acid sensitive; also recorded: marked chemical instability"}, {"measurement": "prevention of bronchoconstriction", "setting": "asthmatic patients", "result": "prevents aspecifically induced (e.g. by nebulized water or by effort) bronchocostriction"}, {"measurement": "hypotensive and vasodilator activity", "setting": "man", "result": "hypotensive and vasodilator activity"}, {"measurement": "blood platelet anti-aggregant and disaggregant properties", "setting": "blood platelet", "result": "blood platelet anti-aggregant and disaggregant properties"}, {"measurement": "uterus stimulant action", "setting": "uterus [3]", "result": "uterus stimulant action"}, {"measurement": "uterus stimulant action", "setting": "uterus [4]", "result": "uterus stimulant action"}, {"measurement": "luteolytic activity", "setting": "test animals", "result": "luteolytic activity"}, {"measurement": "protection of gastric mucous membrane from ulcers", "setting": "gastric mucous membrane", "result": "able to protect the gastric mucous membrane from ulcers"}]}
{"molecule": "CCCCC[C@H](O)/C=C/[C@@H]1[C@H]2C/C(=C/CCCC(=O)O)C[C@H]2C[C@H]1O", "note": "[(2), 5t,13t-11α,15S-dihydroxy-9a-deoxy-9a-methylene-prostacycla-5,13-dienoic acid]", "values": [{"measurement": "IC50", "setting": "platelet aggregation; Platelet", "result": 0.025, "unit": "µg/mL"}, {"measurement": "hypotensive effect potency ratio", "setting": "anaesthetized rat", "result": 1.15}]}
{"molecule": "dl-5,13t-11α,15S-dihydroxy-9a-deoxy-7-nor-methylene-prostacycla-5,13-dienoic acid", "values": [{"measurement": "antiulcerogenic activity relative to PGI2", "setting": "[5]", "result": "ten times greater"}]}
{"molecule": "dl-5,13t-11α,15S-dihydroxy-9a-deoxy-9a,9b-dimethylene-17-cyclohexyl- 18,19,20-trinor-prostacycla-5,13-dienoic acid", "values": [{"measurement": "in vitro luteolytic activity relative to PGI2", "setting": "hamster", "result": 5, "unit": "times greater"}]}
